Laboratory results: ChEMBL document CHEMBL4613219, “Formation of 5α-dihydrotestosterone from 5α-androstane-3α,17β-diol in prostate cancer LAPC-4 cells - Identifying inhibitors of non-classical pathways producing the most potent androgen” (Bioorg Med Chem Lett, 2020)

Key:
Conditions in all cases: LAPC4, 24 h
[1] = system: LAPC4; assay: Inhibition of 3-alpha-diol conversion to 5-alpha-dihydrotestosterone in human LAPC4 cells assessed in 100000 cells at 10 uM measured after 24 hrs using [14C]-3-alpha-diol/[14C]-3-beta-diol (9:1) as non-radiolabeled/radiolabeled 20:1 mixture by TLC analysis relative to control; type: functional
[2] = system: LAPC4; assay: Inhibition of 3-alpha-diol conversion to 5-alpha-dihydrotestosterone in human LAPC4 cells assessed in 100000 cells at 3 uM measured after 24 hrs using [14C]-3-alpha-diol/[14C]-3-beta-diol (9:1) as non-radiolabeled/radiolabeled 20:1 mixture by TLC analysis relative to control; type: functional
[3] = system: LAPC4; assay: Inhibition of 3-alpha-diol conversion to 5-alpha-dihydrotestosterone in human LAPC4 cells assessed in 200000 cells measured after 24 hrs using [14C]-3-alpha-diol/[14C]-3-beta-diol (9:1) as non-radiolabeled/radiolabeled 20:1 mixture by TLC analysis; type: functional, cell-based
[4] = system: LAPC4; assay: Inhibition of 3-alpha-diol conversion to 5-alpha-dihydrotestosterone in human LAPC4 cells assessed in 200000 cells at 3 uM measured after 24 hrs using [14C]-3-alpha-diol/[14C]-3-beta-diol (9:1) as non-radiolabeled/radiolabeled 20:1 mixture by TLC analysis relative to control; type: functional
[5] = system: LAPC4; assay: Inhibition of 3-alpha-diol conversion to 5-alpha-dihydrotestosterone in human LAPC4 cells assessed in 200000 cells at 10 uM measured after 24 hrs using [14C]-3-alpha-diol/[14C]-3-beta-diol (9:1) as non-radiolabeled/radiolabeled 20:1 mixture by TLC analysis relative to control; type: functional

SMILES	inhibition at 10 µM [1] [%]	inhibition at 3 µM [2] [%]	IC50 [3] [µM]	inhibition at 3 µM [4] [%]	inhibition at 10 µM [5] [%]
C[C@]12CC[C@](O)(CN3CCN(Cc4ccc5ccccc5n4)CC3)C[C@@H]1CC[C@@H]1[C@@H]2CC[C@]2(C)C(=O)CC[C@@H]12	27.4	8.4			
C#C[C@]1(O)CC[C@H]2[C@@H]3CC[C@H]4C[C@@](O)(CN5CCN(Cc6cccc(OC)c6C(F)(F)F)CC5)CC[C@]4(C)[C@H]3CC[C@@]21C			14.1	44.3	56.2
COc1cccc(CN2CCN(C[C@@]3(O)CC[C@@]4(C)[C@@H](CC[C@@H]5[C@@H]4CC[C@@]4(C)[C@H]5CCC4(F)F)C3)CC2)c1	49.7	33.7			
CCN(C)S(=O)(=O)N1CCN(C[C@@]2(O)CC[C@@]3(C)[C@@H](CC[C@@H]4[C@@H]3CC[C@]3(C)C(=O)CC[C@@H]43)C2)CC1	3.3	0			
COc1cc(N2CCN(C[C@@]3(O)CC[C@@]4(C)[C@@H](CC[C@@H]5[C@@H]4CC[C@]4(C)C(=O)CC[C@@H]54)C3)CC2)ccc1F				21.4	37.2
C[C@]12CC[C@](O)(CN3CCN(S(=O)(=O)c4ccc5ccccc5c4)CC3)C[C@@H]1CC[C@@H]1[C@@H]2CC[C@]2(C)C(=O)CC[C@@H]12				0.1	19.1
C[C@]12CC[C@](O)(CN3CCN(C(=S)Nc4ccc5ccccc5c4)CC3)C[C@@H]1CC[C@@H]1[C@@H]2CC[C@]2(C)C(=O)CC[C@@H]12				41.1	42.1
C[C@]12CC[C@](O)(CN3CCN(C(=O)c4ccc5ccccc5c4)CC3)C[C@@H]1CC[C@@H]1[C@@H]2CC[C@]2(C)C(=O)CC[C@@H]12			6.1	43.6	65.3
C[C@]12CC[C@@H](O)C[C@@H]1CC[C@@H]1[C@@H]2CC[C@]2(C)C(=O)CC[C@@H]12 [ANDROSTERONE]				85.7	83.8
C#C[C@]1(O)CC[C@H]2[C@@H]3CC[C@H]4C[C@@](O)(CN5CCN(Cc6ccc(C(F)(F)F)c(OC)c6)CC5)CC[C@]4(C)[C@H]3CC[C@@]21C			1.2	74	88.8
COc1cc(N2CCN(C[C@@]3(O)CC[C@@]4(C)[C@@H](CC[C@@H]5[C@@H]4CC[C@]4(C)C(=O)CC[C@@H]54)C3)CC2)ccc1C(F)(F)F	55.6	33.7		37.4	63.2
COc1ccc(C(F)(F)F)c(N2CCN(C[C@@]3(O)CC[C@@]4(C)[C@@H](CC[C@@H]5[C@@H]4CC[C@]4(C)C(=O)CC[C@@H]54)C3)CC2)c1				27.6	48
CC(=O)c1cccc(CN2CCN(C[C@@]3(O)CC[C@@]4(C)[C@@H](CC[C@@H]5[C@@H]4CC[C@]4(C)C(=O)CC[C@@H]54)C3)CC2)c1	15.5	3.7			
COc1cccc(CN2CCN(C[C@@]3(O)CC[C@@]4(C)[C@@H](CC[C@@H]5[C@@H]4CC[C@@]4(C)[C@H]5CC[C@]4(C)O)C3)CC2)c1	36.5	17.8			
COc1cccc(CN2CCN(C[C@@]3(O)CC[C@@]4(C)[C@@H](CC[C@@H]5[C@@H]4CC[C@]4(C)[C@H](O)CC[C@@H]54)C3)CC2)c1	27.6	9.5			
C[C@]12CC[C@](O)(CN3CCN(C(=S)NCc4cccc(C(F)(F)F)c4)CC3)C[C@@H]1CC[C@@H]1[C@@H]2CC[C@]2(C)C(=O)CC[C@@H]12	49.7	27	3.6	47.7	57.7
C[C@]12CCC(O)C[C@@H]1CC[C@@H]1[C@@H]2CC[C@]2(C)[C@@H](O)CC[C@@H]12 (stereo not given in full)	79.3	46.9	0.56	73.6	87
COc1cc(C)ccc1CN1CCN(C[C@@]2(O)CC[C@@]3(C)[C@@H](CC[C@@H]4[C@@H]3CC[C@]3(C)C(=O)CC[C@@H]43)C2)CC1	51.2	12.2			
COc1cccc(CN2CCN(C[C@@]3(O)CC[C@@]4(C)[C@@H](CC[C@@H]5[C@@H]4CC[C@]4(C)C(=O)CC[C@@H]54)C3)CC2)c1	42.5	21.5			
C[C@]12CC[C@](O)(CN3CCN(Cc4ccc5ccccc5c4)CC3)C[C@@H]1CC[C@@H]1[C@@H]2CC[C@]2(C)C(=O)CC[C@@H]12				30.1	51.4
COc1cccc(CN2CCN(C[C@@]3(O)CC[C@@]4(C)[C@@H](CC[C@@H]5[C@@H]4CC[C@]4(C)C(=O)C(C)(C)C[C@@H]54)C3)CC2)c1	21.5	11.8			
C#C[C@]1(O)CC[C@H]2[C@@H]3CC[C@H]4C[C@@](O)(CN5CCN(Cc6cccc(OC)c6)CC5)CC[C@]4(C)[C@H]3CC[C@@]21C	44.2	35.4			
CN(C)S(=O)(=O)c1ccc(NC(=S)N2CCN(C[C@@]3(O)CC[C@@]4(C)[C@@H](CC[C@@H]5[C@@H]4CC[C@]4(C)C(=O)CC[C@@H]54)C3)CC2)cc1	31.7	14.3			
COc1cc(CN2CCN(C[C@@]3(O)CC[C@@]4(C)[C@@H](CC[C@@H]5[C@@H]4CC[C@]4(C)C(=O)CC[C@@H]54)C3)CC2)ccc1C(F)(F)F			8		
COc1cccc(CN2CCN(C[C@@]3(O)CC[C@@]4(C)[C@@H](CC[C@@H]5[C@@H]4CC[C@]4(C)[C@@H](O)CC[C@@H]54)C3)CC2)c1	28.3	21.2			
COc1cc(CN2CCN(C[C@@]3(O)CC[C@@]4(C)[C@@H](CC[C@@H]5[C@@H]4CC[C@]4(C)C(=O)CC[C@@H]54)C3)CC2)ccc1C	49	22.3			
COc1cc(CN2CCN(C[C@@]3(O)CC[C@@]4(C)[C@@H](CC[C@@H]5[C@@H]4CC[C@]4(C)C(=O)CC[C@@H]54)C3)CC2)cc(C(F)(F)F)c1			3.7	46.8	62.9
